Experiments:
[1] = test system: Wildtype (WT) mice fed high-fat chow; assay: Diet-induced obesity, wildtype mice on high-fat chow, 12 weeks; type: in vivo, mouse
Procedure: (G) At the end of treatment, quadriceps muscles were isolated and exposed ex vivo to either 10 mM glucose or 1 mM palmitate-BSA in the presence of 1×/min electrical stimulation. […] Curves depict interquartile range and single values; histograms depict single values and mean±s.e.m.; n=10 mice/group in A-E; n=3 mice/group in F-H. *, P<0.05 vs same-diet vehicle control, 1-way ANOVA with Tukey's multi-comparison; #, P<0.05 vs vehicle, 2-way ANOVA test.
Metabolic cages. VO2 (ml/h/kg) and energy expenditure to body weight (kcal/h/kg) were assessed via indirect calorimetry using the TSE Automated Phenotyping System PhenoMaster (TSE system, Chesterfield, Mo.). Mice were singly housed in their home cages in an enclosed environmental chamber (part of the TSE system) with controlled temperature and light/dark cycles (12 hours each; 6 AM-6 PM). […] Measurements of CO2 production and O2 consumption occurred using the attached gas analyzer to assess energy expenditure. In addition, physical activity in three dimensions was monitored via infrared beam breaks through frames mounted on the perimeter of the metabolic cages. Enrichment items were omitted to avoid insulation from sensors and infrared light beam path obstruction. Results are expressed as 12 hour-period values (light/dark; 10 values per mouse). Metabolic cage assays were conducted blinded to treatment groups.
2-NBDG uptake assay and glycemia/lactate monitoring. 2-NBDG uptake assay in live myofibers was conducted adapting previously reported conditions (Zou et al., 2005). FDB muscles were collected and carefully treated with collagenase type II and hand pipetting to liberate single myofibers, following reported procedures (Demonbreun and McNally, 2015). Myofibers from two FDB muscles were collected in 1 ml Ringer's solution (for 1 l, 7.2 g NaCl, 0.17 g CaCl2, 0.37 g KCl; pH, 7.4). 200 μl of myofiber suspension were dispensed per well of chambered coverglass (#155382; Thermo Fisher, Waltham, Mass.) and imaged as baseline condition for both transmitted light (1 ms integration) and green fluorescent channels (100 ms integration) at the Zeiss Axio Observer A1 microscope, using 20× short-range objective and the ZEN 2 software (version 2011; Zeiss, Jena, Germany). Immediately after baseline imaging, myofibers were supplemented with 2 mM glucose (#D8375-1 g; Millipore Sigma, St Louis, Mo.) and 50 μM 2-NBDG (#11046; Cayman Chemical, Ann Arbor, Mich.). For insulin-dependent uptake, insulin (#12585014; Thermo Fisher, Waltham, Mass.) was added to a final […] concentration. To control Glut1-/Glut4-dependent uptake, negative control wells were further supplemented with 10 μM cytochalasin B (#C6762; Millipore Sigma, St Louis, Mo.). Myofibers were incubated for 30 minutes in a 37° C./10% CO2 incubator, then washed twice in Ringer's solution and immediately imaged in fresh Ringers' solution, using the same integration and objective settings used for pre-incubation pictures. 2-NBDG uptake was quantitated as relative fluorescent units, calculated as intra-myofiber fluorescence after incubation subtracted of average baseline fluorescence. Fluorescence intensity was quantitated through serial analysis of acquired images (3 areas of approximately 85 μm^2 were analyzed for average fluorescence value per myofiber; >10 myofibers were analyzed per mouse) with ImageJ software (Schneider et al., 2012). All glucose uptake assays were conducted blinded to treatment groups.
Glucose was measured in blood (first drop from tail venipuncture) or serum (5 μl of 1:2 dilution) with an AimStrip Plus glucometer system (Germaine Laboratories, San Antonio, Tex.) and expressed as mg/dl values. Lactate was measured in blood (second drop from tail venipuncture) or serum (5 μl of 1:2 dilution) with a Lactate Plus reader (Nova Biomedical, Waltham, Mass.) and expressed as mM values. Fasting glycemia was measured in mice after 4 hours fasting (7 AM-11 AM). […]

mdx mice = assay: Glycemia monitoring, insulin sensitivity, glucose and pyruvate tolerance tests, adipocyte histology in mdx mice; type: in vivo, mouse
Procedure: Glucose was measured in blood (first drop from tail venipuncture) or serum (5 μl of 1:2 dilution) with an AimStrip Plus glucometer system (Germaine Laboratories, San Antonio, Tex.) and expressed as mg/dl values. Lactate was measured in blood (second drop from tail venipuncture) or serum (5 μl of 1:2 dilution) with a Lactate Plus reader (Nova Biomedical, Waltham, Mass.) and expressed as mM values. Fasting glycemia was measured in mice after 4 hours fasting (7 AM-11 AM). Glucose, insulin and pyruvate tolerance tests were conducted after 4 hours fasting in individual cages immediately after baseline fasting glucose monitoring. Mice were injected with either 1 g/kg glucose (#D8375-1 g; Millipore Sigma, St Louis, Mo.), or 0.5 U/kg insulin (#12585014; Thermo Fisher, Waltham, Mass.), or 2.5 g/kg pyruvate (#P5280-25 g; Millipore Sigma, St Louis, Mo.) in 200 μl intraperitoneal injections, and glucose was then monitored by tail venipuncture at 10 min, 20 min, 30 min, 60 min, 120 min after injection. All glucose and pyruvate tolerance tests were conducted blinded to treatment groups.
Histology. Excised tissues (muscles, omental fat, heart) were placed in 10% formaldehyde (Cat #245-684; Fisher Scientific, Waltham, Mass.) for histologic processing. Seven μm sections from the center of paraffin-embedded muscles were stained with hematoxylin and eosin (H&E; cat #12013B, 1070C; Newcomer Supply, Middleton, Wis.) and Masson's trichrome (Cat #HT-15; Sigma-Aldrich; St. Louis, Mo.). Myofiber/adipocyte CSA quantitation was conducted on 400 myofibers/adipocytes per tissue per mouse. Imaging was performed using a Zeiss Axio Observer A1 microscope, using 10× and 20× (short-range) objectives. Brightfield pictures were acquired via Gryphax software (version 1.0.6.598; Jenoptik, Jena, Germany). Area quantitation was performed by means of ImageJ (Schneider et al., 2012). Sample processing, imaging and CSA quantitation were conducted blinded to treatment groups.

[2] = WT mice on high-fat chow, weekly prednisone, 12 weeks

## C[C@]12C=CC(=O)C=C1CC[C@@H]1[C@@H]2C(=O)C[C@@]2(C)[C@H]1CC[C@]2(O)C(=O)CO [prednisone, Prednisone]
[1]; 10 mM glucose or 1 mM palmitate-BSA, normal and high-fat diet, weekly prednisone 12 weeks
  ATP and phosphocreatine production of quadriceps ex vivo: higher levels
[1]; WT mice on high-fat chow, once weekly prednisone 1 mg/kg i.p., 12 weeks, vs vehicle
  gain of body weight: reduced
[1]; [2]
  accrual of whole-body fat mass and adipocyte mass in the ventral fat pad: reduced
  endpoint grip strength and running endurance: significant improvement
  gain of hyperglycemia (fasting blood glucose over time): reduced
  retention of lean mass, myofiber mass and specific force: improving
[1]; WT mice on high-fat chow, weekly prednisone, 12 weeks, absence and presence of insulin
  ex vivo uptake of 2-NBDG in freshly isolated myofibers: improved
[1]; WT mice on high-fat chow, weekly prednisone, 12 weeks, endpoint
  body-wide glucose homeostasis (glucose and insulin tolerance tests): improved
[1]; normal or high-fat diet chow, weekly prednisone, 12 weeks
  oxidative capacity and energy expenditure in the active phase (metabolic cage): increased
Mdx mice; daily prednisone
  adipocyte hypertrophy: induced adipocyte hypertrophy
  endpoint glucose and pyruvate tolerance tests: induced glucose intolerance and pyruvate intolerance
  glucose homeostasis: impaired
  insulin resistance: induced insulin resistance
Mdx mice; daily prednisone, over treatment
  Glycemia: progressively increased
Mdx mice; weekly prednisone
  endpoint glucose tolerance test: did not increase glucose intolerance
  insulin sensitivity: higher

Source: patent publication US20220062299A1, “USE OF GLUCOCORTICOID STEROIDS IN PREVENTING AND TREATING CONDITIONS OF MUSCLE WASTING, AGING AND METABOLIC DISORDER” (NORTHWESTERN UNIVERSITY, priority 2018, published 2022)
